Laboratory results: US10647687B2, “Spiropyrazine derivatives as inhibitors of non-apoptotic regulated cell-death” (Helmholtz Zentrum München Deutsches Forschungszentrum für …, priority 2014, dated 2020)

How the values were obtained:
[1] = test system: SH-SY5Y cells; experiment: Specificity: TNF-alpha-induced apoptosis in SH-SY5Y cells (Example B.3); assay type: cell-based, human; settings: compound 1 μM, TNF-alpha 10 ng/mL, FIG. 1
Method: SH-SY5Y cells were propagated and seeded in 96-well plates, together with compound N-1, N-2, N-10 of Table 1-N (FIG. 1A), compound O/S-6 or O/S-3 of Table 1-O/S (FIG. 1B), or compound C-12, C-91, or C-205 of Table 1-C (FIG. 1C) (each 1 μM) and TNF-alpha was added (final concentration: 10 ng/mL) to induce apoptosis. The apoptosis and pan-caspase inhibitor z-vad (final concentration: 50 μM) and the necroptosis inhibitor Necrostatin-1 (Nec-1; final concentration: 5 μM) were used for comparison. Control wells were established with vehicle only (DMSO), with and without treatment with TNF-alpha to induce apoptosis. Cells were incubated, and cell survival was detected and quantified. Percentage cell survival after TNF-alpha-induced apoptosis is shown (error bars indicate standard deviation (SD)).
Briefly, SH-SY5Y cells were propagated and seeded in 96-well plates, together with the compound to be tested (1 μM), generally as described in Example B.1, except they were seeded at 1,000 cell/well and instead of BSO, TNF-alpha (Invitrogen) was added to a final concentration of 10 ng/mL to induce apoptosis. The apoptosis and pan-caspase inhibitor Z-VAD-fink (Enzo Life Science; final concentration 50 μM) and the necroptosis inhibitor Necrostatin-1 (Nec-1; Enzo Life Science; final concentration 5 μM) were used for comparison. Control wells were established with vehicle only (DMSO), with and without treatment with TNF-alpha to induce apoptosis. Cells were incubated, and cell survival was detected and quantified as described in Example B.1.

[2] = test system: C57BL/6 mice; experiment: Liver ischemia-reperfusion injury model (Example C.1); assay type: in vivo, mouse; settings: single i.p. dose 10 mg/Kg
Method: FIG. 2: Efficacy of a compound disclosed herein in an animal model of liver IRI. […] The “Sham” bar represents the data from control animals that were treated to the same protocol but without atraumatic clipping. Errors shown are SEM. Significant differences are seen between IRI+vehicle compared to IRI+Cmpd, as well as between IRI+vehicle compared to Sham+vehicle.
Briefly, to test such utility of compounds disclosed herein, ischemia is induced in the liver of 6-8 week old C57BL/6 mice (Charles River) by midline laparotomy whereby the blood supply to the left and median lobes of the liver is interrupted via atraumatic clipping for 90 min, followed by reperfusion for a period of 24 h. After reperfusion, but prior to final abdominal closure, animals are treated with a single i.p. dose of the compound to be tested (10 mg/Kg), or with vehicle (DMSO) as negative control. […] The “Sham” bar represents the data from control animals that were treated to the same protocol but without atraumatic clipping.

[3] = test system: C57BL/6 mice; experiment: Kidney ischemia-reperfusion injury model (Example C.2); assay type: in vivo, mouse; settings: dose of both 1 and 10 mg/kg, compared to vehicle control, FIG. 3
Method: FIG. 3: Efficacy of a compound disclosed herein in an animal model of kidney IRI.
Briefly, to test such utility of compounds disclosed herein, ischemia is induced in the kidney of 6-8 week old C57BL/6 mice by interruption of the blood supply to the kidney via reversible clipping of the Arteria renalis for 30 min, followed by reperfusion for a period of 24 h. Mice are treated with compound (or vehicle control) generally as described in Example C.1 at 1 hour prior to and four hours after abdomal closure and once daily over a period of 14 days. Markers to be investigated for IRI of kidney include […] creatinine levels in the serum along with histopathological analysis.

[4] = test system: C57BL/6 mice; experiment: Traumatic brain injury, controlled cortical impact model (Example C.5); assay type: in vivo, mouse; settings: compared to vehicle control, 24 h after CCI, FIG. 4
Method: FIG. 4: Efficiency of a compound disclosed herein in an animal model of traumatic brain injury.
Briefly, to test such utility of compounds disclosed herein, male C57BL/6 mice are anesthetised prior to the induction of trauma. Core body temperature is maintained at 37° C. using a feedback-controlled heating pad connected to a rectal probe. To induce trauma, a craniotomy is prepared over the right parietal cortex. Controlled cortical impact (CCI) is delivered perpendicular to the surface of the brain with a custom-made CCI applicator for mice using the following parameters: 8 m/s velocity, 3 mm diameter, 1 mm brain displacement and 150 ms duration. Following CCI, the skull is closed by affixing the removed bone flap using veterinary-grade tissue glue (Vetbond, 3M, St. Paul, Minn.). Compounds are administered at 1 mg/Kg or 10 mg/Kg (dissolved in 40% PEG) 15 minutes after TBI induction and 40% PEG is included as vehicle control. The animals are recovered from anesthesia in an incubator heated to 33° C. Animals are sacrificed and the brain is removed 24 h after CCI and immediately frozen on crushed dry ice and stored at −80° C. […] The sections are stained with cresyl violet for quantifying the area of contused brain, and contusion volume is calculated and the effect of the compounds tested observed following analysis of such data.

## Clc1cccc(CNC2=Nc3ccccc3NC23CCNCC3)c1 [N-2]
[1]
  Percentage cell survival after TNF-alpha-induced apoptosis: Non-inhibition of apoptotic cell-death
[2]; liver IRI, compared to vehicle control, FIG. 2A
  serum marker for liver cell damage GPT: significant reduction
[2]; liver IRI, compared to vehicle control, FIG. 2B
  serum marker for liver cell damage GOT: significant reduction
[2]; FIG. 2
  serum GPT and GOT, IRI+Cmpd compared to Sham+vehicle: No significant difference
[3]
  survival of mice suffering kidney-ischemic reperfusion injury: Improved survival
[4]
  contusion volume in the brains of mice following traumatic brain injury: trend of a (non-significant) positive effect
